Assay results published in patent publication US4845194A, “Glycopeptide recovery process” (Eli Lilly and Company, priority 1987, dated 1989).

What was measured:
Assay in all cases: In vivo antimicrobial activity in experimentally infected mice (ED50)
[1] = system: Streptococcus pneumoniae; details: for ED50 Value Streptococcus pneumoniae: mg/kg × 2, doses administered subcutaneously to mice 1 and 4 hours postinfection, dose protecting 50% of animals
Procedure: (§1) The A82846 antibiotics have shown in vivo antimicrobial activity against experimentally-induced infections in laboratory animals. When two doses of test compound were administered to mice experimentally infected with the test organism, the activity observed was measured as an ED50 value [effective dose in mg/kg to protect 50% of the test animals: see Warren Wick, et al., J. Bacteriol. 81, 233-235 (1961)].
(§2) ^a mg/kg × 2; doses administered subcutaneously to mice 1 and 4

[2] = system: Streptococcus pyogenes; details: for ED50 Value Streptococcus pyogenes: mg/kg × 2, doses administered subcutaneously to mice 1 and 4 hours postinfection, dose protecting 50% of animals
Procedure: as §1, §2

[3] = system: Staphylococcus aureus; details: for ED50 Value Staphylococcus aureus: mg/kg × 2, doses administered subcutaneously to mice 1 and 4 hours postinfection, dose protecting 50% of animals
Procedure: as §1, §2

Structure (SMILES) | ED50 Value Streptococcus pneumoniae [1] | ED50 Value Streptococcus pyogenes [2] | ED50 Value Staphylococcus aureus [3] | ED50 ([1]; Streptococcus pneumoniae, sc, read-out: ED50 Value Streptococcus pneumoniae) | ED50 ([2]; Streptococcus pyogenes, sc, read-out: ED50 Value Streptococcus pyogenes) | ED50 ([3]; Staphylococcus aureus, sc, read-out: ED50 Value Staphylococcus aureus)
CN[C@@H](CC(C)C)C(=O)N[C@H]1C(=O)N[C@H](CC(N)=O)C(=O)N[C@H]2C(=O)N[C@H]3C(=O)N[C@@H](C(=O)NC(C(=O)O)c4cc(O)cc(O)c4-c4cc3ccc4O)[C@@H](O[C@H]3C[C@](C)(N)[C@H](O)[C@@H](C)O3)c3ccc(cc3)Oc3cc2cc(c3O[C@H]2O[C@@H](CO)[C@@H](O)[C@H](O)[C@@H]2O[C@H]2C[C@](C)(N)[C@H](O)[C@@H](C)O2)Oc2ccc(cc2)[C@@H]1O (stereo partly drawn) [Compound A82846C] | 5.87 mg/kg | 2.71 mg/kg | 2.18 mg/kg | – | – | –
CN[C@H](CC(C)C)C(=O)N[C@H]1C(=O)N[C@@H](CC(N)=O)C(=O)N[C@H]2C(=O)N[C@H]3C(=O)N[C@H](C(=O)N[C@@H](C(=O)O)c4cc(O)cc(O)c4-c4cc3ccc4O)[C@H](O[C@@H]3C[C@@](C)(N)[C@H](O)[C@@H](C)O3)c3ccc(cc3)Oc3cc2cc(c3O[C@H]2O[C@@H](CO)[C@H](O)[C@@H](O)[C@@H]2O[C@H]2C[C@](C)(N)[C@@H](O)[C@H](C)O2)Oc2ccc(cc2Cl)[C@H]1O [Compound A82846A] | 0.17 mg/kg | 0.19 mg/kg | 0.19 mg/kg | – | – | –
CN[C@H](CC(C)C)C(=O)N[C@H]1C(=O)N[C@@H](CC(N)=O)C(=O)N[C@H]2C(=O)N[C@H]3C(=O)N[C@H](C(=O)N[C@H](C(=O)O)c4cc(O)cc(O)c4-c4cc3ccc4O)[C@H](O)c3ccc(c(Cl)c3)Oc3cc2cc(c3O[C@@H]2O[C@H](CO)[C@@H](O)[C@H](O)[C@H]2O[C@H]2C[C@](C)(N)[C@H](O)[C@H](C)O2)Oc2ccc(cc2Cl)[C@H]1O [Vancomycin, vancomycin, reference compound] | – | – | – | 1.52 mg/kg | 0.72 mg/kg | 1.3 mg/kg
CN[C@H](CC(C)C)C(=O)N[C@H]1C(=O)N[C@@H](CC(N)=O)C(=O)N[C@H]2C(=O)N[C@H]3C(=O)N[C@H](C(=O)N[C@H](C(=O)O)c4cc(O)cc(O)c4-c4cc3ccc4O)[C@H](O[C@H]3C[C@](C)(N)[C@@H](O)[C@H](C)O3)c3ccc(c(Cl)c3)Oc3cc2cc(c3O[C@@H]2O[C@H](CO)[C@@H](O)[C@H](O)[C@H]2O[C@H]2C[C@](C)(N)[C@@H](O)[C@H](C)O2)Oc2ccc(cc2Cl)[C@H]1O [Compound A82846B] | 0.18 mg/kg | 0.20 mg/kg | 0.19 mg/kg | – | – | –
